Common to all, as to assay: Growth inhibition test (MTT), cytotoxic action on tumour cell lines
One data set concerns HT29. Type of data set: cell-based, human. How it is done: (§1) The human large intestine cell lines SW 480 and HT29 (ATCC No. CCL 228 and HTB38 and the mouse melanoma cell line B16F10 (CRL 6475) were grown to confluence in Roux dishes in RPMI 1640 medium with addition of 10% FCS. They were then trypsinized and taken up in RPMI plus 10% FCS to a cell count of 50,000 cells or, for B16F10, 20,000 cells per ml. 100 μl of cell suspension/well were added to a 96 microwell plate and incubated at 37° C. for 1 day in a CO2 incubator. A further 100 μl of RPMI medium and 1 μl of DMSO were then added with the test substances. The growth was checked after day 6. For this, 25 μl of MTT solution (3-(4,5-dimethylthiazol-2-yl)-2,5-diphenyltetrazolium bromide) was added to each well at a starting concentration of 5 mg/ml of H2O. The plate was incubated at 37° C. for 5 hours in a CO2 incubator. The medium was then aspirated and 100 μl of i-propanol/well were added. After shaking with 100 μl of H2O for 30 min, the extinction was measured at 595 nm using a Multiplate Reader (BIO-RAD) 3550-UV).
(§2) The cytostatic action is indicated in Table 2 as an IC50 value, in each case for the individual cell lines.

In the next data set the test system is SW 480. It counts as cell-based, human. How it is done: as §1, §2
The next data set concerns B16F10. Type of data set: cell-based, mouse. How it is done: as §1, §2
Where [1] appears, read: HT29, MTT after day 6, read-out: IC50 values of the cytotoxic action on tumour cell lines, HT29.
Setting [2] is: SW480, MTT after day 6, read-out: IC50 values of the cytotoxic action on tumour cell lines, SW480.
Setting [3] is: B16F10, MTT after day 6, read-out: IC50 values of the cytotoxic action on tumour cell lines, B16F10.

Read-outs that look alike come from different tables or passages of the source. *1 amine or outer side, *2 acyl side, *3 side chain or, on linkers, in order; H or OH if unused. Where a SMILES comes first, the peptide text is derived from it. [ ]: non-standard residue; d: D form. The star is where a group is joined. ξ: configuration not given here. Camptothecin(20R,20-O) = CC[C@]1(O*)C(=O)OCc2c1cc1n(c2=O)Cc2cc3ccccc3nc2-1; X1 = CCCNC(=O)Nc1cccc(S(=O)(=O)Nc2cccc(C(CC(=O)O)N*)c2)c1; NH(1,4-C6H4)NHCS = S=C(Nc1ccc(N[*:1])cc1)[*:2]; ξH = NC(Cc1c[nH]cn1)C(=O)O; CO = O=C([*:1])[*:2]

As to `CCCNC(=O)Nc1cccc(S(=O)(=O)Nc2cccc(C(CC(=O)O)NC(=O)Nc3ccc(NC(=S)N4CCC[C@@H]4C(=O)NCC(=O)NCC(=O)N[C@H](CC(C)C)C(=O)N[C@H](CC(N)=O)C(=O)N[C@@H](C(=O)O[C@@]4(CC)C(=O)OCc5c4cc4n(c5=O)Cc5cc6ccccc6nc5-4)C(C)C)cc3)c2)c1` (stereo partly drawn) [Example 23] ({X1-CO}-[NH(1,4-C6H4)NHCS][dP]GG[dL][dN][dV]-{Camptothecin(20R,20-O)}), the IC50 was 0.15 µM in the data set with HT29 (setting [1]), 0.4 µM in the data set with SW 480 (setting [2]) and 1.5 µM with B16F10 (setting [3]).

Turning to `CCCNC(=O)Nc1cccc(S(=O)(=O)Nc2cccc(C(CC(=O)O)NC(=O)Nc3ccc(NC(=S)N4CCC[C@H]4C(=O)N[C@@H](CC(C)C)C(=O)NCC(=O)N[C@@H](CC(C)C)C(=O)N[C@H](C(=O)N[C@H](C(=O)O[C@]4(CC)C(=O)OCc5c4cc4n(c5=O)Cc5cc6ccccc6nc5-4)C(C)C)C(C)C)cc3)c2)c1` (stereo partly drawn) [Example 32], the IC50 in the data set with HT29 (setting [1]) turned out to be 0.1 µM; with SW 480 (setting [2]) it was 0.12 µM; in the data set on B16F10 (setting [3]) it was 0.2 µM.

For `CCCNC(=O)Nc1cccc(S(=O)(=O)Nc2cccc(C(CC(=O)O)NC(=O)Nc3ccc(NC(=S)N4CCC[C@H]4C(=O)N[C@@H](CC(C)C)C(=O)NCC(=O)N[C@@H](CC(C)C)C(=O)N[C@@H](CO)C(=O)N[C@H](C(=O)O[C@]4(CC)C(=O)OCc5c4cc4n(c5=O)Cc5cc6ccccc6nc5-4)C(C)C)cc3)c2)c1` (stereo partly drawn) [Example 34], the IC50 was determined as 0.05 µM with HT29 (setting [1]), 0.1 µM in the data set with SW 480 (setting [2]) and 0.8 µM in the data set with B16F10 (setting [3]).

In the case of `CCCNC(=O)Nc1cccc(S(=O)(=O)Nc2cccc(C(CC(=O)O)NC(=O)Nc3ccc(NC(=S)N4CCC[C@H]4C(=O)N[C@@H](CC(C)C)C(=O)NCC(=O)N[C@@H](CC(C)C)C(=O)N[C@H](C)C(=O)N[C@H](C(=O)O[C@]4(CC)C(=O)OCc5c4cc4n(c5=O)Cc5cc6ccccc6nc5-4)C(C)C)cc3)c2)c1` (stereo partly drawn) [Example 31], the results for the IC50 with HT29 (setting [1]) and with SW 480 (setting [2]) were 0.25 µM and 0.3 µM, respectively.

In the case of `CCCNC(=O)Nc1cccc(S(=O)(=O)Nc2cccc(C(CC(=O)O)NC(=O)Nc3ccc(NC(=S)N4CCC[C@H]4C(=O)N[C@@H](CC(C)C)C(=O)NCC(=O)N[C@@H](CC(C)C)C(=O)N[C@H](C(=O)N[C@H](C(=O)O[C@]4(CC)C(=O)OCc5c4cc4n(c5=O)Cc5cc6ccccc6nc5-4)C(C)C)C(C)CC)cc3)c2)c1` (stereo partly drawn) [Example 35], the results for the IC50 in the data set on HT29 (setting [1]), in the data set with SW 480 (setting [2]) and with B16F10 (setting [3]) were 0.15 µM, 0.2 µM and 0.8 µM, respectively.

Take `CCCCNC(=O)Nc1cccc(S(=O)(=O)Nc2cccc(C(CC(=O)O)NC(=O)Nc3ccc(NC(=S)NCC(=O)N4CCC[C@@H]4C(=O)N[C@@H](CC(C)C)C(=O)NCC(=O)N[C@H](CC(C)C)C(=O)N[C@H](CC(N)=O)C(=O)N[C@@H](C(=O)O[C@@]4(CC)C(=O)OCc5c4cc4n(c5=O)Cc5cc6ccccc6nc5-4)C(C)C)cc3)c2)c1` (single isomer, unassigned) [Example 22]: the values for the IC50 in the data set on HT29 (setting [1]), in the data set on SW 480 (setting [2]) and in the data set on B16F10 (setting [3]) were 0.015 µM, 0.03 µM and 0.09 µM, respectively.

Regarding `CCCNC(=O)Nc1cccc(S(=O)(=O)Nc2cccc(C(CC(=O)O)NC(=O)Nc3ccc(NC(=S)N4CCC[C@H]4C(=O)N[C@@H](CC(C)C)C(=O)NCC(=O)N[C@@H](CC(C)C)C(=O)N[C@@H](C)C(=O)N[C@H](C(=O)O[C@]4(CC)C(=O)OCc5c4cc4n(c5=O)Cc5cc6ccccc6nc5-4)C(C)C)cc3)c2)c1` (stereo partly drawn) [Example 30], the results for the IC50 with HT29 (setting [1]) and in the data set on SW 480 (setting [2]) were 0.4 µM and 0.5 µM, respectively.

As to `CCCNC(=O)Nc1cccc(S(=O)(=O)Nc2cccc(C(CC(=O)O)NC(=O)Nc3ccc(NC(=S)N4CCC[C@H]4C(=O)N[C@@H](CC(C)C)C(=O)NCC(=O)N[C@@H](CC(C)C)C(=O)N[C@@H](CCC(=O)O)C(=O)N[C@H](C(=O)O[C@]4(CC)C(=O)OCc5c4cc4n(c5=O)Cc5cc6ccccc6nc5-4)C(C)C)cc3)c2)c1` (stereo partly drawn) [Example 36], the IC50 in the data set on HT29 (human, 6 day) worked out at 0.1 µM; with SW 480 (human, 6 day), 0.15 µM; with B16F10 (mouse, 6 day) it was 0.3 µM.

Take `CCCNC(=O)Nc1cccc(S(=O)(=O)Nc2cccc(C(CC(=O)O)NC(=O)Nc3ccc(NC(=S)N4CCC[C@@H]4C(=O)N[C@@H](CC(C)C)C(=O)NCC(=O)N[C@H](CCC)C(=O)N[C@H](CC(N)=O)C(=O)N[C@@H](C(=O)O[C@@]4(CC)C(=O)OCc5c4cc4n(c5=O)Cc5cc6ccccc6nc5-4)C(C)C)cc3)c2)c1` (single isomer, unassigned) [Example 21]: the IC50 in the data set on HT29 (setting [1]) is 0.03 µM; in the data set with SW 480 (setting [2]) it was 0.06 µM; with B16F10 (setting [3]), 0.2 µM.

For `CCCNC(=O)Nc1cccc(S(=O)(=O)Nc2cccc(C(CC(=O)O)NC(=O)Nc3ccc(NC(=S)NCC(=O)N4CCC[C@@H]4C(=O)N[C@@H](CC(C)C)C(=O)NCC(=O)N[C@H](CC(C)C)C(=O)N[C@H](Cc4c[nH]cn4)C(=O)N[C@@H](C(=O)O[C@@]4(CC)C(=O)OCc5c4cc4n(c5=O)Cc5cc6ccccc6nc5-4)C(C)C)cc3)c2)c1` (single isomer, unassigned) [Example 29], the IC50 came to 0.08 µM in the data set with HT29 (setting [1]), 0.1 µM in the data set with SW 480 (setting [2]) and 0.4 µM in the data set with B16F10 (setting [3]).

As for `CCCNC(=O)Nc1cccc(S(=O)(=O)Nc2cccc(C(CC(=O)O)NC(=O)Nc3ccc(NC(=S)N4CCC[C@@H]4C(=O)N[C@@H](CC(C)C)C(=O)NCC(=O)N[C@H](Cc4c[nH]cn4)C(=O)N[C@@H](C(=O)O[C@@]4(CC)C(=O)OCc5c4cc4n(c5=O)Cc5cc6ccccc6nc5-4)C(C)C)cc3)c2)c1` (single isomer, unassigned) [Example 26], the IC50 with HT29 (setting [1]) came out at 0.05 µM; with SW 480 (setting [2]) it was 0.09 µM; with B16F10 (setting [3]) it was 0.3 µM.

Consider `CCCNC(=O)Nc1cccc(S(=O)(=O)Nc2cccc(C(CC(=O)O)NC(=O)Nc3ccc(NC(=S)N4CCC[C@@H]4C(=O)NC(Cc4c[nH]cn4)C(=O)NCC(=O)N[C@H](CC(C)C)C(=O)N[C@H](CC(N)=O)C(=O)N[C@@H](C(=O)O[C@@]4(CC)C(=O)OCc5c4cc4n(c5=O)Cc5cc6ccccc6nc5-4)C(C)C)cc3)c2)c1` (stereo partly drawn) [Example 24] ({X1-CO}-[NH(1,4-C6H4)NHCS][dP][ξH]G[dL][dN][dV]-{Camptothecin(20R,20-O)}), for which the IC50 in the data set on HT29 (setting [1]) turned out to be 0.15 µM; in the data set on SW 480 (setting [2]), 0.4 µM; in the data set on B16F10 (setting [3]), 0.9 µM.

Turning to `CCCNC(=O)Nc1cccc(S(=O)(=O)Nc2cccc(C(CC(=O)O)NC(=O)Nc3ccc(NC(=S)N4CCC[C@@H]4C(=O)N4CCC[C@@H]4C(=O)N[C@@H](CC(C)C)C(=O)NCC(=O)N[C@H](CC(C)C)C(=O)N[C@H](CC(N)=O)C(=O)N[C@@H](C(=O)O[C@@]4(CC)C(=O)OCc5c4cc4n(c5=O)Cc5cc6ccccc6nc5-4)C(C)C)cc3)c2)c1` (single isomer, unassigned) [Example 28], the IC50 in the data set on HT29 (setting [1]) came to 0.03 µM; in the data set with SW 480 (setting [2]), 0.03 µM; with B16F10 (setting [3]) it was 0.25 µM.

Take `CCCNC(=O)Nc1cccc(S(=O)(=O)Nc2cccc(C(CC(=O)O)NC(=O)Nc3ccc(NC(=S)N4CCC[C@H]4C(=O)N[C@@H](CC(C)C)C(=O)NCC(=O)N[C@@H](CC(C)C)C(=O)NCC(=O)N[C@H](C(=O)O[C@]4(CC)C(=O)OCc5c4cc4n(c5=O)Cc5cc6ccccc6nc5-4)C(C)C)cc3)c2)c1` (stereo partly drawn) [Example 37]: the figures for the IC50 with HT29 (setting [1]) and with SW 480 (setting [2]) were 0.3 µM and 0.5 µM, respectively.

For the compound `CCCNC(=O)Nc1cccc(S(=O)(=O)Nc2cccc(C(CC(=O)O)NC(=O)Nc3ccc(NC(=S)N4CCC[C@@H]4C(=O)N[C@@H](CC(C)C)C(=O)NCC(=O)N[C@H](CC(C)C)C(=O)N[C@@H](C(=O)O[C@@]4(CC)C(=O)OCc5c4cc4n(c5=O)Cc5cc6ccccc6nc5-4)C(C)C)cc3)c2)c1` (single isomer, unassigned) [Example 27], the results for the IC50 with HT29 (setting [1]), in the data set on SW 480 (setting [2]) and in the data set on B16F10 (setting [3]) were 0.15 µM, 0.2 µM and 0.8 µM, respectively.

For orientation: IC50 means the concentration at which inhibition is half-maximal.

The values above are taken from patent publication US20020183256A1, “Cytostatic-integrin conjugates having specifically cleavable linking units” (priority 2000, published 2002).
